Here are results for 77 sequences from the supplement of paper PMC11208160.

This data set in a line: recombinant barcode read abundance after kanamycin selection (control-corrected) (log10(CPM+1)); higher = more efficient recombination; sequences stand for … in AGTGCAGAGAAAATCGGCCAGTTTTCTCTGCCTGCAGTCCGCATGCCGT…AGATTTATGCAGCGGACTGCCTTTCTCCCAAAGTGATAAACCGGACAGTATCATGGACCGGTTTTCCCGGTAATCCGTATTTGCAAGGTTGGTTTCACT; site = the 11-nt target. The procedure, abridged:
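IS621 bridge RNA target-binding loops were paired with targets in a pooled library tested in E. coli. After co-electroporation with a donor plasmid, cells were plated in two replicates on chloramphenicol/ampicillin LB agar (control) and on chloramphenicol/ampicillin/kanamycin carrying 0.1 mM IPTG. Barcodes at recombinant junctions were counted as counts per million, averaged and control-corrected to give recombination efficiency. Values are log10(CPM+1).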
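Further: IS621 recombinase and bridge RNA in Escherichia coli cells.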

With “ATCTATTCTTGGGTTCTAACCTGTTGCCT (site ATCGATGCTAG)”, the “recombinant barcode read abundance (log10)” value was 0.198.
The figure for “ATCTATTCTTGGGTTCTAACCTGTTGCCT (site ATCTATTCTAG)” is 0.111.
For “ATGAACACTTGGGTTCTAACCTGTTGCTG (site ATGAACACTCA)”, the “recombinant barcode read abundance (log10)” value turned out to be 1.95.
“ATGAACACTTGGGTTCTAACCTGTTGCTG (site TAATGGCCTTC)”: the “recombinant barcode read abundance (log10)” value was 0.0343.
Consider “ATGAGAGCTTGGGTTCTAACCTGTTGCCT (site ATAAGACCTAG)”, for which the “recombinant barcode read abundance (log10)” value came to 0.324.
With “ATGAGAGCTTGGGTTCTAACCTGTTGCCT (site ATGAGAGCTAG)”, the “recombinant barcode read abundance (log10)” value worked out at 1.05.
Regarding “ATGAGGACTTGGGTTCTAACCTGTTGCCT (site ATGAGGACTAG)”, the “recombinant barcode read abundance (log10)” value was determined as 1.84.
The figure for “ATGAGGACTTGGGTTCTAACCTGTTGCCT (site CTGAGGACTAG)” is 0.362.
The figure for “ATGAGGACTTGGGTTCTAACCTGTTGCCT (site GTGAGGACTAG)” is 0.12; for “ATGAGGACTTGGGTTCTAACCTGTTGCCT (site TTGAGGACTAG)” it is 0.246.
With “ATGAGGCCTTGGGTTCTAACCTGTTGCTA (site ATGAGGCCTTA)”, the “recombinant barcode read abundance (log10)” value is 0.739.
The same measure for “ATGAGGCCTTGGGTTCTAACCTGTTGCTA (site TCAGAAGCTCG)”: 0.159; for “ATGATACCTTGGGTTCTAACCTGTTGCAT (site ATGATACCTAT)”: 1.71; for “ATGATACCTTGGGTTCTAACCTGTTGCAT (site CCTGGGACTTA)”: 0.243.
On to “ATGATATCTTGGGTTCTAACCTGTTGCCT (site AAGATATCTAG)”, for which the “recombinant barcode read abundance (log10)” value worked out at 0.0255.
Turning to “ATGATATCTTGGGTTCTAACCTGTTGCCT (site ACGATATCTAG)”, the “recombinant barcode read abundance (log10)” value was found to be 0.43.
For the sequence “ATGATATCTTGGGTTCTAACCTGTTGCCT (site AGGATATCTAG)”, the “recombinant barcode read abundance (log10)” value was found to be 0.181.
The figure for “ATGATATCTTGGGTTCTAACCTGTTGCCT (site ATGATATCTAG)” is 1.5; for “ATGCAATCTTGGGTTCTAACCTGTTGCCT (site ATGCAAACTAG)” it is 0.104; for “ATGCAATCTTGGGTTCTAACCTGTTGCCT (site ATGCAACCTAG)” it is 0.197.
Regarding “ATGCAATCTTGGGTTCTAACCTGTTGCCT (site ATGCAAGCTAG)”, the “recombinant barcode read abundance (log10)” value came to 0.236.
“ATGCAATCTTGGGTTCTAACCTGTTGCCT (site ATGCAATCTAG)”: the “recombinant barcode read abundance (log10)” value was determined as 1.09.
For “ATGCGAGCTTGGGTTCTAACCTGTTGCGG (site ATGCGAGCTCA)”, the “recombinant barcode read abundance (log10)” value was found to be 0.873.
The same measure for “ATGCGAGCTTGGGTTCTAACCTGTTGCGG (site ATGCGAGCTCC)”: 1.92; for “ATGCGAGCTTGGGTTCTAACCTGTTGCGG (site ATGCGAGCTCG)”: 0.194.
On to “ATGCGAGCTTGGGTTCTAACCTGTTGCGG (site ATGCGAGCTCT)”, for which the “recombinant barcode read abundance (log10)” value amounted to 1.37.
For “ATGCGAGCTTGGGTTCTAACCTGTTGCTG (site ATGCGAGCTCA)”, the “recombinant barcode read abundance (log10)” value was determined as 1.19.
On to “ATGCGAGCTTGGGTTCTAACCTGTTGCTG (site ATGCGAGCTCC)”, for which the “recombinant barcode read abundance (log10)” value was determined as 0.687.
On to “ATGCGAGCTTGGGTTCTAACCTGTTGCTG (site ATGCGAGCTCG)”, for which the “recombinant barcode read abundance (log10)” value was 0.533.
For “ATGCGAGCTTGGGTTCTAACCTGTTGCTG (site ATGCGAGCTCT)”, the “recombinant barcode read abundance (log10)” value stood at 0.76.
With “ATGCGGTCTTGGGTTCTAACCTGTTGCCT (site ATGCGGTCTAG)”, the “recombinant barcode read abundance (log10)” value was 2.02.
The same measure for “ATGCGGTCTTGGGTTCTAACCTGTTGCCT (site CTGCGGTCTAT)”: 0.112; for “ATGCTAACTTGGGTTCTAACCTGTTGCCT (site ATGCTAACTAG)”: 1.62; for “ATGCTAACTTGGGTTCTAACCTGTTGCCT (site GTGCTAACTTG)”: 0.471.
Turning to “ATGCTATCTTGGGTTCTAACCTGTTGCAG (site ATGCTATCTCT)”, the “recombinant barcode read abundance (log10)” value amounted to 0.678.
Turning to “ATGCTATCTTGGGTTCTAACCTGTTGCAG (site CACGGTCCTTG)”, the “recombinant barcode read abundance (log10)” value was determined as 0.276.
Regarding “ATGCTGTCTTGGGTTCTAACCTGTTGCTA (site ATGCTGTCTTA)”, the “recombinant barcode read abundance (log10)” value is 1.52.
Take “ATGCTGTCTTGGGTTCTAACCTGTTGCTA (site GACTACCCTAG)”: the “recombinant barcode read abundance (log10)” value was found to be 0.273.
Turning to “ATGGCACCTTGGGTTCTAACCTGTTGCCT (site AGGGCACCTTG)”, the “recombinant barcode read abundance (log10)” value was 0.035.
The figure for “ATGGCACCTTGGGTTCTAACCTGTTGCCT (site ATGGCACCTAG)” is 1.04; for “ATGGCCTCTTGGGTTCTAACCTGTTGCTA (site ATGGCCTCTTA)” it is 2.5.
Take “ATGGCCTCTTGGGTTCTAACCTGTTGCTA (site GCTTAAACTAG)”: the “recombinant barcode read abundance (log10)” value came out at 0.0975.
“ATGGGCCCTTGGGTTCTAACCTGTTGCTG (site ATGGGCCCTAA)”: the “recombinant barcode read abundance (log10)” value was 0.13.
Take “ATGGGCCCTTGGGTTCTAACCTGTTGCTG (site ATGGGCCCTCA)”: the “recombinant barcode read abundance (log10)” value was 2.97.
Regarding “ATGGGCCCTTGGGTTCTAACCTGTTGCTG (site ATGGGCCCTGA)”, the “recombinant barcode read abundance (log10)” value was found to be 0.127.
The figure for “ATGGGCCCTTGGGTTCTAACCTGTTGCTG (site ATGGGCCCTTA)” is 0.511; for “ATGGGGTCTTGGGTTCTAACCTGTTGCTT (site AAGGGGTCTAA)” it is 0.223; for “ATGGGGTCTTGGGTTCTAACCTGTTGCTT (site ATGGGGTCTAA)” it is 1.73.
On to “ATGGGTCCTTGGGTTCTAACCTGTTGCCG (site ATAGGTCCTCA)”, for which the “recombinant barcode read abundance (log10)” value was determined as 0.536.
Take “ATGGGTCCTTGGGTTCTAACCTGTTGCCG (site ATGGGTCCTCG)”: the “recombinant barcode read abundance (log10)” value is 2.21.
As to “ATGGTCACTTGGGTTCTAACCTGTTGCCT (site AAGGTCACTAG)”, the “recombinant barcode read abundance (log10)” value came to 0.354.
In the case of “ATGGTCACTTGGGTTCTAACCTGTTGCCT (site ACGGTCACTAG)”, the “recombinant barcode read abundance (log10)” value came out at 1.18.
As to “ATGGTCACTTGGGTTCTAACCTGTTGCCT (site AGGGTCACTAG)”, the “recombinant barcode read abundance (log10)” value was found to be 0.0805.
With “ATGGTCACTTGGGTTCTAACCTGTTGCCT (site ATGGTCACTAG)”, the “recombinant barcode read abundance (log10)” value worked out at 2.54.
As for “ATGGTGTCTTGGGTTCTAACCTGTTGCCT (site ATGGTGACTAG)”, the “recombinant barcode read abundance (log10)” value turned out to be 0.109.
Regarding “ATGGTGTCTTGGGTTCTAACCTGTTGCCT (site ATGGTGCCTAG)”, the “recombinant barcode read abundance (log10)” value came out at 0.768.
Take “ATGGTGTCTTGGGTTCTAACCTGTTGCCT (site ATGGTGGCTAG)”: the “recombinant barcode read abundance (log10)” value is 0.0539.
Turning to “ATGGTGTCTTGGGTTCTAACCTGTTGCCT (site ATGGTGTCTAG)”, the “recombinant barcode read abundance (log10)” value was determined as 2.75.
For the sequence “ATGTACACTTGGGTTCTAACCTGTTGCCT (site ATGGATACTAG)”, the “recombinant barcode read abundance (log10)” value was found to be 0.0684.
For “ATGTACACTTGGGTTCTAACCTGTTGCCT (site ATGTACACTAG)”, the “recombinant barcode read abundance (log10)” value stood at 1.55.
Consider “ATGTAGTCTTGGGTTCTAACCTGTTGCCT (site ATGTAGTCTAG)”, for which the “recombinant barcode read abundance (log10)” value came to 1.89.
Take “ATGTAGTCTTGGGTTCTAACCTGTTGCCT (site TTGTCGTCTAG)”: the “recombinant barcode read abundance (log10)” value turned out to be 0.24.
With “ATGTCCTCTTGGGTTCTAACCTGTTGCCT (site ATGACCTCTAG)”, the “recombinant barcode read abundance (log10)” value stood at 0.145.
The same measure for “ATGTCCTCTTGGGTTCTAACCTGTTGCCT (site ATGCCCTCTAG)”: 0.872; for “ATGTCCTCTTGGGTTCTAACCTGTTGCCT (site ATGGCCTCTAG)”: 0.276.
Regarding “ATGTCCTCTTGGGTTCTAACCTGTTGCCT (site ATGTCCTCTAG)”, the “recombinant barcode read abundance (log10)” value was 1.5.
The figure for “ATGTCTGCTTGGGTTCTAACCTGTTGCCT (site ATGTCTGCTAG)” is 0.475; for “ATGTCTGCTTGGGTTCTAACCTGTTGCCT (site GATGGACCTTA)” it is 0.0105.
The same measure for “ATGTGAACTTGGGTTCTAACCTGTTGCTG (site ATGTGAACTCA)”: 1.02; for “ATGTGAACTTGGGTTCTAACCTGTTGCTG (site GCAGCCTCTAC)”: 0.0648.
For the sequence “ATGTGCTCTTGGGTTCTAACCTGTTGCCT (site AAGTGCTCTAG)”, the “recombinant barcode read abundance (log10)” value stood at 0.204.
Regarding “ATGTGCTCTTGGGTTCTAACCTGTTGCCT (site ACGTGCTCTAG)”, the “recombinant barcode read abundance (log10)” value worked out at 0.253.
On to “ATGTGCTCTTGGGTTCTAACCTGTTGCCT (site AGGTGCTCTAG)”, for which the “recombinant barcode read abundance (log10)” value is 0.22.
The same measure for “ATGTGCTCTTGGGTTCTAACCTGTTGCCT (site ATGTGCTCTAG)”: 2.07; for “ATGTTAGCTTGGGTTCTAACCTGTTGCCT (site ATGTAGGCTAG)”: 0.208; for “ATGTTAGCTTGGGTTCTAACCTGTTGCCT (site ATGTTAGCTAG)”: 1.65.
The figure for “ATTCGAGCTTGGGTTCTAACCTGTTGCAT (site ATTCGAGCTAT)” is 1.18.
